# Source: patent US8029980B2, “Identification and use of agents that modulate oncogenic transcription agent activity” (The Board of Trustees of the University of Illinois, priority 2006, dated 2011)
# “Also recorded” adds a separate entry of the source.
# Key:
# FoxM1 = biological target: T1, FoxM1 (Homo sapiens, UniProt Q08050); assay: FoxM1-responsive firefly luciferase reporter assay in C3-Luc cells; type: cell-based; details: C3-Luc cells, 1 μg/mL doxycycline (60-fold induction), 5 μM compound, 24 hrs
# T1 construct: expressed in transfected cells; host or cells: U2OS clone C3 / C3-Luc
# T1 sequence (Q08050 1-748 isoform Q08050-2): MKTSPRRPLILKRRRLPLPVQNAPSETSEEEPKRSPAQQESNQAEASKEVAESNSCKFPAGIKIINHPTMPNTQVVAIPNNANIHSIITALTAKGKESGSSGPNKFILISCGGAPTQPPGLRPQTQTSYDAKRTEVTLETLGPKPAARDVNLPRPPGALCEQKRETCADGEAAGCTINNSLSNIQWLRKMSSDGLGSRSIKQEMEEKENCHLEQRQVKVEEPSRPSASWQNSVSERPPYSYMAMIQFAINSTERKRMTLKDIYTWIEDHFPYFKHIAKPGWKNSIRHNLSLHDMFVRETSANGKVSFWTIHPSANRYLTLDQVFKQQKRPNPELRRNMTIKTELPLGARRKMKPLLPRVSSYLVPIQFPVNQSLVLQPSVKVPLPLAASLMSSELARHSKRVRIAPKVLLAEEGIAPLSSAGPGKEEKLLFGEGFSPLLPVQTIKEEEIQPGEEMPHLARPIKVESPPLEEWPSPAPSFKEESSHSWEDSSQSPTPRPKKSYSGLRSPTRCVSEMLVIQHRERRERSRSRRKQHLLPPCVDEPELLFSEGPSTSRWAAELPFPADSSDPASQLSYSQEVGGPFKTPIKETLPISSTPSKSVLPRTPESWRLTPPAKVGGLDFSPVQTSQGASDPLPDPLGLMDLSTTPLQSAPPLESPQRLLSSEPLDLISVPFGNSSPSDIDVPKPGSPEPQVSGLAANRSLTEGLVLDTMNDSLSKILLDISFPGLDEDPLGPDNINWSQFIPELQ
# Protocol: FIG. 6. Thiostrepton and Siomycin A both inhibit FoxM1 transcriptional activity. […] The next day, the luciferase activity was measured with the Dual-Luciferase reporter assay system (E1910; Promega) according to the manufacturer's instructions.
# The development of U2OS clone C3 cell line with doxycyclin inducible FoxM1-GFP fusion protein has been described before (17). This cell line was transfected with a plasmid expressing firefly luciferase under the control of 6× FoxM1 responsive (FoxRE) promoter (17), along with pcDNA3.1 (Invitrogen, Carlsbad, Calif.) plasmid that expresses neomycin phospho-transferase. […] This clone was further transfected with pRL-CMV (Promega) that expresses renilla luciferase along with pLPCX-puro (Clontech), and the cells were selected in 2 μg/ml puromycin. This cell line which expresses FoxM1-dependent firefly luciferase and constitutive renilla luciferase was named as C3-Luc and used for the screening of compound libraries (Challenge set and Diversity set) from the National Cancer Institute.
# For high-throughput screening, the C3-Luc cells were grown in 96-well plates and treated overnight with a combination of 1 μg/ml doxycycline and 10 μM of compounds from the library. Next day, the firefly and renilla luciferase activities were measured with the Dual Glo system (E2940; Promega).
# For the other luciferase assay experiments, the cells were treated as indicated in the FIG. 1 legend and the luciferase activity was measured using the Dual Luciferase reporter assay system (E1910; Promega) according to the manufacturer's instructions.
# [1] = test system: Breast cancer cell lines BT-474, MDA-MB-231, T-47D and ZR-75-1; assay: FoxM1 and cleaved caspase-3 immunoblot in breast cancer cell lines; type: cell-based, human; details: 5 μM, 48 hrs
# Protocol: FIG. 7. […] Breast cancer cell lines BT-474, MDA-MB-231, T-47D and ZR-75-1 were treated with 5 μM Siomycin and thiostrepton, respectively, for 48 hrs and the cell lysates were analyzed for the levels of FoxM1 and cleaved caspase-3 by immunoblotting.
# (§1) Immunoblotting was performed as described (18-20) with antibodies specific for p21 (556431; BD Pharmingen), survivin (sc-10811; Santa Cruz), cleaved caspase-3 (9664; Cell Signaling), and β-actin (A5441; Sigma) antibodies. Immunoblot for FoxM1 was done using the previously generated rabbit antisera (2), and phospho-FoxM1 was detected using the MPM2 monoclonal antibody (Upstate Biotechnology) which recognizes the phosphorylated protein sequence phosphoserine/phosphothreonine-proline.
# [2] = test system: Liver cancer cell lines Huh7, Hep-3B and SK-Hep; assay: FoxM1 and cleaved caspase-3 immunoblot in liver cancer cell lines; type: cell-based, human; details: 10 μM, 48 hrs
# Protocol: FIG. 9. […] Liver cancer cell lines Huh7, Hep-3B and SK-Hep were treated with 10 μM Siomycin A and thiostrepton, respectively, for 48 hrs, and the cell lysates were analyzed for the levels of FoxM1 and cleaved caspase-3 by immunoblotting.
# as §1
# First, we treated liver cancer cell lines Huh7, Hep-3B and SK-Hep that have deleted or mutant p53 with these compounds for 48 hrs, and the cell lysates were analyzed for the levels of FoxM1 and cleaved caspase-3 by immunoblotting.
# [3] = test system: Leukemia cell lines CEM, HL60 and U937; assay: FoxM1 and cleaved caspase-3 immunoblot in leukemia cell lines; type: cell-based, human; details: 5 μM, 48 hrs
# Protocol: FIG. 10. […] Leukemia cell lines CEM, HL60 and U937 were treated with 5 μM Siomycin A and thiostrepton, respectively, for 48 hrs and the cell lysates were analyzed for the levels of FoxM1 and cleaved caspase-3 by immunoblotting.
# as §1
# Next we treated leukemia cell lines with mutant p53 CEM, HL60 and U937 with 5 μM of these compounds for 48 hrs and the cell lysates were analyzed for the levels of FoxM1 and cleaved caspase-3 by immunoblotting.
# [4] = test system: NB7 and NB7-casp8 neuroblastoma cells; assay: FoxM1 and cleaved caspase-3 immunoblot in neuroblastoma cells; type: cell-based; details: 24 hrs
# Protocol: FIG. 11. […] Cells were treated with Siomycin A, thiostrepton or DMSO, harvested 24 hrs later and the lysates were used to determine proteins levels by immunoblotting with antibodies specific for FoxM1, cleaved caspase-3 and β-actin (AS441, Sigma).
structure (smiles),measurement,setting,value
C=C(NC(=O)C(=C)NC(=O)c1csc(C2=N[C@@H]3c4csc(n4)[C@H]4NC(=O)c5csc(n5)[C@H]([C@](C)(O)[C@@H](C)O)NC(=O)[C@H]5CSC(=N5)/C(=C/C)NC(=O)[C@H]([C@@H](C)O)NC(=O)c5csc(n5)[C@]3(CC2)NC(=O)[C@H](C)NC(=O)C(=C)NC(=O)[C@H](C)NC(=O)[C@H]([C@@H](C)CC)N[C@@H]2C=Cc3c([C@H](C)O)cc(nc3[C@H]2O)C(=O)O[C@@H]4C)n1)C(N)=O [thiostrepton],relative firefly luciferase activity (FoxM1 transcriptional activity),FoxM1,efficiently reduced the value to basal levels
same,FoxM1 expression,[1],stronger inhibitor of FoxM1; also recorded: inhibit FoxM1 expression
same,apoptosis (cleaved caspase-3),[1],more efficient inducer of apoptosis than Siomycin A; also recorded: induce apoptosis
same,FoxM1 protein expression,[2],repress FoxM1 protein expression
same,apoptosis (cleaved caspase-3),[2],induce apoptosis
same,FoxM1 expression,[3],inhibit FoxM1 expression
same,apoptosis (cleaved caspase-3),[3],induce apoptosis
same,apoptosis (cleaved caspase-3),[4]; NB7 and NB7 with reconstituted caspase-8,induce apoptosis in these neuroblastoma cells independently from caspase-8
same,FoxM1 protein expression,[4]; immunoblot,inhibit FoxM1 protein expression
